Test systems include NCI/ADR-RES ovarian; MALME-3M melanoma; RXF 393 renal; HS 578T breast; IGROV1 ovarian; SK-MEL-2 melanoma; LOX IMVI melanoma; COLO 205 colon; HOP-92 NSCLC; HOP-62 NSCLC.
Common to all, as to test: NCI-60 cell line screen, 48 h

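Cells were grown in 96-well plates and exposed to each compound for 48 hours at five concentrations; endpoints were interpolated linearly between bracketing concentrations, or set to the highest concentration if not reached. TGI denotes the concentration required for complete inhibition of growth.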

On to `CCOC(=O)c1cnccc1CC1(C#N)c2ccccc2C=CN1C(=O)c1ccccc1` (centres undefined), for which the TGI is above 100 µM in the assay on NCI/ADR-RES ovarian; 26.5 µM in the assay with MALME-3M melanoma; above 100 µM in the assay on RXF 393 renal; 46.4 µM in the assay on HS 578T breast; 39.9 µM in the assay with IGROV1 ovarian; 41.4 µM with SK-MEL-2 melanoma. Besides, the TGI with LOX IMVI melanoma was 72.9 µM; in the assay with COLO 205 colon, above 100 µM; in the assay on HOP-92 NSCLC it was above 100 µM; with HOP-62 NSCLC, above 100 µM.
In the case of `C=C1C(=O)O[C@H]2[C@H]3O[C@@H](C[C@@H]12)[C@](C)(O)CC[C@@H]1O[C@@]1(C)CCC[C@H]3C`, the TGI was above 100 µM in the assay on NCI/ADR-RES ovarian; 31 µM in the assay on MALME-3M melanoma; 26.9 µM with RXF 393 renal; above 100 µM with HS 578T breast; 46.2 µM in the assay with IGROV1 ovarian; 43.6 µM with SK-MEL-2 melanoma. Moreover, the TGI with LOX IMVI melanoma is 35.7 µM; in the assay on COLO 205 colon it was 30 µM; in the assay on HOP-92 NSCLC it was 36.4 µM; in the assay with HOP-62 NSCLC, above 100 µM.
Regarding `Cc1ccc(S(=O)(=O)N(CC(O)COc2ccccc2)c2ccc(F)cc2F)cc1` (centres undefined), the TGI in the assay on NCI/ADR-RES ovarian was 33.3 µM; in the assay with MALME-3M melanoma, 36 µM; in the assay on RXF 393 renal, 27 µM; in the assay with HS 578T breast, 39.9 µM; in the assay on SK-MEL-2 melanoma it was 30.4 µM; in the assay with LOX IMVI melanoma, 27.3 µM. The TGI in the assay on COLO 205 colon was 28.6 µM; with HOP-92 NSCLC it was 12.4 µM; in the assay with HOP-62 NSCLC, 30.1 µM.
For `C(/Cc1ccc2c(c1)OCO2)=N\NC1=NCCCN1`, the TGI in the assay with NCI/ADR-RES ovarian, in the assay on MALME-3M melanoma, in the assay with RXF 393 renal, in the assay with HS 578T breast, in the assay with IGROV1 ovarian and with SK-MEL-2 melanoma was above 100 µM throughout. For the same compound, the TGI with LOX IMVI melanoma, in the assay on COLO 205 colon, with HOP-92 NSCLC and with HOP-62 NSCLC was above 100 µM in each case.
For `COC(=O)[C@@H]1CN(C(=O)c2ccccc2)C(=O)N1C(=O)OCc1ccccc1`, the TGI in the assay with NCI/ADR-RES ovarian, in the assay with MALME-3M melanoma, in the assay with RXF 393 renal, in the assay on HS 578T breast, in the assay with IGROV1 ovarian and with SK-MEL-2 melanoma was above 100 µM each time. In addition, the TGI in the assay on LOX IMVI melanoma, in the assay with COLO 205 colon, in the assay on HOP-92 NSCLC and in the assay on HOP-62 NSCLC was above 100 µM each time.
As to `NCCC1CN(C(=O)OCc2ccccc2)c2ccccc21` (centres undefined), the TGI was found to be 36.7 µM in the assay with NCI/ADR-RES ovarian; 29.1 µM in the assay on MALME-3M melanoma; 32.3 µM in the assay on RXF 393 renal; 56.8 µM in the assay with HS 578T breast; 33 µM in the assay with IGROV1 ovarian; 36.3 µM with SK-MEL-2 melanoma. Besides, the TGI with LOX IMVI melanoma was 17.1 µM; in the assay on COLO 205 colon, 31.5 µM; with HOP-92 NSCLC it was 26.9 µM; in the assay on HOP-62 NSCLC, above 54.4 µM.
For the compound `CC(=O)Nc1cc(Nc2cc(=O)[nH]c(=O)[nH]2)ccc1C`, the TGI with NCI/ADR-RES ovarian, with MALME-3M melanoma, in the assay with RXF 393 renal, with HS 578T breast, in the assay with IGROV1 ovarian and in the assay on LOX IMVI melanoma was above 100 µM throughout. In addition, the TGI in the assay with COLO 205 colon, with HOP-92 NSCLC and in the assay on HOP-62 NSCLC was above 100 µM each time.
Turning to `CCOC(=O)C1(C(F)(F)F)N=C(CC)OC(N2CCOCC2)=N1` (centres undefined), the TGI in the assay on NCI/ADR-RES ovarian, in the assay with RXF 393 renal, in the assay on HS 578T breast, in the assay on IGROV1 ovarian, in the assay with SK-MEL-2 melanoma and in the assay on LOX IMVI melanoma was above 100 µM each time. Besides, the TGI in the assay with COLO 205 colon and in the assay on HOP-92 NSCLC was above 100 µM each time.
Consider `CC(C)OC1OC(CO)C(O)CC1n1cc(F)c(=O)[nH]c1=O` (centres undefined), for which the TGI with NCI/ADR-RES ovarian, in the assay with MALME-3M melanoma, in the assay on RXF 393 renal, in the assay with HS 578T breast, in the assay on IGROV1 ovarian and in the assay with SK-MEL-2 melanoma was above 100 µM in each case. Moreover, the TGI in the assay on LOX IMVI melanoma, in the assay on COLO 205 colon and in the assay on HOP-92 NSCLC was above 100 µM throughout.
For `Cc1nc(-c2cc3cc(Cl)ccc3oc2=O)cc2c1c(=O)oc1ccc(Cl)cc12`, the TGI in the assay on NCI/ADR-RES ovarian, in the assay on RXF 393 renal, in the assay on HS 578T breast, with IGROV1 ovarian, with SK-MEL-2 melanoma and with LOX IMVI melanoma was above 100 µM each time. Moreover, the TGI with COLO 205 colon, in the assay with HOP-92 NSCLC and with HOP-62 NSCLC was above 100 µM each time.
Take `Cc1nc2ccc(Cl)cc2c2c1CCN2c1ccccc1`: the TGI is 26 µM in the assay on NCI/ADR-RES ovarian; 32.3 µM in the assay on MALME-3M melanoma; 18.6 µM with RXF 393 renal; 55.7 µM in the assay on HS 578T breast; above 100 µM in the assay with IGROV1 ovarian; 22.3 µM in the assay with LOX IMVI melanoma. For the same compound, the TGI with COLO 205 colon amounted to 18.1 µM; in the assay on HOP-92 NSCLC it was 24.1 µM; in the assay on HOP-62 NSCLC it was 83.8 µM.
For the compound `COc1c(C)c(C/C=C(\C)CC/C=C(\C)CCC=C(C)C)c(OC)c(OC)c1OC`, the TGI in the assay on NCI/ADR-RES ovarian, with RXF 393 renal, in the assay with HS 578T breast, in the assay on IGROV1 ovarian, in the assay with SK-MEL-2 melanoma and with LOX IMVI melanoma was above 100 µM each time. For the same compound, the TGI in the assay on COLO 205 colon, in the assay with HOP-92 NSCLC and in the assay on HOP-62 NSCLC was above 100 µM in each case.
As to `COC1(OC)c2no[n+]([O-])c2C(OC)(OC)c2c1no[n+]2[O-]`, the TGI with NCI/ADR-RES ovarian was found to be 62.8 µM; in the assay on MALME-3M melanoma it was 29.4 µM; in the assay with RXF 393 renal, 58.7 µM; with HS 578T breast, 97.7 µM; with IGROV1 ovarian, 51 µM; in the assay on SK-MEL-2 melanoma, 42 µM. Moreover, the TGI in the assay on LOX IMVI melanoma turned out to be 33.5 µM; in the assay on COLO 205 colon, 28.5 µM; in the assay on HOP-62 NSCLC, 35.8 µM.
Regarding `CC(C)(C)C1CC[C@H](O)[C@H]([C@H](O)CC2CC(=O)N(c3ccccc3)C(=O)C2)C1` (some centres undefined), the TGI in the assay on NCI/ADR-RES ovarian, in the assay on MALME-3M melanoma, with RXF 393 renal, in the assay with HS 578T breast, in the assay on IGROV1 ovarian and in the assay with LOX IMVI melanoma was above 100 µM throughout. Besides, the TGI with HOP-92 NSCLC and with HOP-62 NSCLC was above 100 µM in each case.

Values taken from PubChem BioAssay (NCI).
